{"source": "patent US8383619B2", "about": "“Pharmaceutical compounds” (Astex Therapeutics Limited, priority 2008, dated 2013)", "assay_in_all_cases": "Anti-proliferative assay (Oncodesign)", "format_in_all_cases": "cell-based", "key": {"LS 174T": {"test_system": "LS 174T", "details": "Homo sapiens, LS174T; LS 174T (COLON); read-out: IC50 (Concentration of test compound)", "experimental": "(§1) The anti-proliferative activities of the parent compounds of the pro-drugs of the invention may be determined by measuring the ability of the compounds to inhibition of cell growth in a number of cell lines such as the human colon cancer cell line HCT116. Inhibition of cell growth is measured using the Alamar Blue assay (Nociari, M. M, Shalev, A., Benias, P., Russo, C. Journal of Immunological Methods 1998, 213, 157-167). The method is based on the ability of viable cells to reduce resazurin to its fluorescent product resorufin. For each proliferation assay cells are plated onto 96 well plates and allowed to recover for 16 hours prior to the addition of inhibitor compounds for a further 72 hours. At the end of the incubation period 10% (v/v) Alamar Blue is added and incubated for a further 6 hours prior to determination of fluorescent product at […]. In the case of the non-proliferating cell assay cells are maintained at confluence for 96 hour prior to the addition of inhibitor compounds for a further 72 hours. The number of viable cells is determined by Alamar Blue assay as before. Cell lines may be obtained from the ECACC (European Collection of cell Cultures).\n(§2) The parent compound of the pro-drugs of Examples 1 to 25 i.e. (2,4-dihydroxy-5-isopropyl-phenyl)-[5-(4-methyl-piperazin-1-ylmethyl)-1,3-dihydro-isoindol-2-yl]-methanone, in the form of its L-lactate salt, was tested in anti-proliferative assays against one hundred cell lines by Oncodesign (Dijon, France). The IC50 values against each cell line are set out in the table below and the figures in the table refer to nanomolar concentrations. The compounds were tested up to a concentration of 10,000 nanomolar."}, "SK-MES-1": {"test_system": "SK-MES-1", "details": "Homo sapiens; SK-MES-1 (LUNG); read-out: IC50 (Concentration of test compound)", "experimental": "as §1, §2"}, "CGL-1": {"test_system": "CGL-1", "details": "CGL-1 (BRAIN); read-out: IC50 (Concentration of test compound)", "experimental": "as §1, §2"}, "LNCaP-FGC": {"test_system": "LNCaP-FGC", "details": "LNCaP-FGC (PROSTATE); read-out: IC50 (Concentration of test compound)", "experimental": "as §1, §2"}, "J82": {"test_system": "J82", "details": "Homo sapiens; J82 (URINARY BLADDER); read-out: IC50 (Concentration of test compound)", "experimental": "as §1, §2"}, "HL-60": {"test_system": "HL-60", "details": "Homo sapiens; HL-60 (BLOOD); read-out: IC50 (Concentration of test compound)", "experimental": "as §1, §2"}, "Hs 746T": {"test_system": "Hs 746T", "details": "Homo sapiens, Hs746T; Hs 746T (STOMACH); read-out: IC50 (Concentration of test compound)", "experimental": "as §1, §2"}, "Raji": {"test_system": "Raji", "details": "Homo sapiens; Raji (BLOOD); read-out: IC50 (Concentration of test compound)", "experimental": "as §1, §2"}, "CCRF-CEM": {"test_system": "CCRF-CEM", "details": "Homo sapiens; CCRF-CEM (BLOOD); read-out: IC50 (Concentration of test compound)", "experimental": "as §1, §2"}, "LB831-BLC": {"test_system": "LB831-BLC", "details": "LB831-BLC (URINARY BLADDER); read-out: IC50 (Concentration of test compound)", "experimental": "as §1, §2"}, "ARH-77": {"test_system": "ARH-77", "details": "Homo sapiens; ARH-77 (BLOOD); read-out: IC50 (Concentration of test compound)", "experimental": "as §1, §2"}, "U-937": {"test_system": "U-937", "details": "Homo sapiens; U-937 (BLOOD); read-out: IC50 (Concentration of test compound)", "experimental": "as §1, §2"}, "CAMA-1": {"test_system": "CAMA-1", "details": "Homo sapiens; CAMA-1 (BREAST); read-out: IC50 (Concentration of test compound)", "experimental": "as §1, §2"}, "Evsa-T": {"test_system": "Evsa-T", "details": "Homo sapiens; Evsa-T (BREAST); read-out: IC50 (Concentration of test compound)", "experimental": "as §1, §2"}, "NCI-H1299": {"test_system": "NCI-H1299", "details": "Homo sapiens; NCI-H1299 (LUNG); read-out: IC50 (Concentration of test compound)", "experimental": "as §1, §2"}, "K-562": {"test_system": "K-562", "details": "Homo sapiens, K562; K-562 (BLOOD); read-out: IC50 (Concentration of test compound)", "experimental": "as §1, §2"}, "BB74-MEL": {"test_system": "BB74-MEL", "details": "BB74-MEL (SKIN); read-out: IC50 (Concentration of test compound)", "experimental": "as §1, §2"}, "A-375-SM": {"test_system": "A-375-SM", "details": "Homo sapiens, A375-SM; A-375-SM (SKIN); read-out: IC50 (Concentration of test compound)", "experimental": "as §1, §2"}, "MCF-7/ras": {"test_system": "MCF-7/ras", "details": "Homo sapiens, MCF7; MCF-7/ras (BREAST); read-out: IC50 (Concentration of test compound)", "experimental": "as §1, §2"}, "NCI-H82": {"test_system": "NCI-H82", "details": "Homo sapiens; NCI-H82 (LUNG); read-out: IC50 (Concentration of test compound)", "experimental": "as §1, §2"}, "NCI-H596": {"test_system": "NCI-H596", "details": "Homo sapiens; NCI-H596 (LUNG); read-out: IC50 (Concentration of test compound)", "experimental": "as §1, §2"}, "Daudi": {"test_system": "Daudi", "details": "Homo sapiens; Daudi (BLOOD); read-out: IC50 (Concentration of test compound)", "experimental": "as §1, §2"}, "SK-HEP-1": {"test_system": "SK-HEP-1", "details": "Homo sapiens, SK-HEP1; SK-HEP-1 (LIVER); read-out: IC50 (Concentration of test compound)", "experimental": "as §1, §2"}, "HL-60/R10": {"test_system": "HL-60/R10", "details": "Homo sapiens; HL-60/R10 (BLOOD); read-out: IC50 (Concentration of test compound)", "experimental": "as §1, §2"}, "KCL-22": {"test_system": "KCL-22", "details": "Homo sapiens; KCL-22 (BLOOD); read-out: IC50 (Concentration of test compound)", "experimental": "as §1, §2"}}, "note": "pIC50: −log10 of the molar value."}
{"compound": "CC(C)c1cc(C(=O)N2Cc3ccc(CN4CCN(C)CC4)cc3C2)c(O)cc1O", "note": "[(2,4-dihydroxy-5-isopropyl-phenyl)-[5-(4-methyl-piperazin-1-ylmethyl)-1,3-dihydro-isoindol-2-yl]-methanone]", "values": [{"measurement": "pIC50", "setting": "LS 174T", "result": 6.80}, {"measurement": "pIC50", "setting": "SK-MES-1", "result": 6.57}, {"measurement": "pIC50", "setting": "CGL-1", "result": "< 5.00"}, {"measurement": "pIC50", "setting": "LNCaP-FGC", "result": 7.11}, {"measurement": "pIC50", "setting": "J82", "result": 7.70}, {"measurement": "pIC50", "setting": "HL-60", "result": 6.41}, {"measurement": "pIC50", "setting": "Hs 746T", "result": 7.47}, {"measurement": "pIC50", "setting": "Raji", "result": 6.06}, {"measurement": "pIC50", "setting": "CCRF-CEM", "result": 6.97}, {"measurement": "pIC50", "setting": "LB831-BLC", "result": 6.83}, {"measurement": "pIC50", "setting": "ARH-77", "result": "< 5.00"}, {"measurement": "pIC50", "setting": "U-937", "result": 6.98}, {"measurement": "pIC50", "setting": "CAMA-1", "result": 7.66}, {"measurement": "pIC50", "setting": "Evsa-T", "result": 6.77}, {"measurement": "pIC50", "setting": "NCI-H1299", "result": 6.23}, {"measurement": "pIC50", "setting": "K-562", "result": 6.83}, {"measurement": "pIC50", "setting": "BB74-MEL", "result": 6.79}, {"measurement": "pIC50", "setting": "A-375-SM", "result": 6.47}, {"measurement": "pIC50", "setting": "MCF-7/ras", "result": 6.78}, {"measurement": "pIC50", "setting": "NCI-H82", "result": "< 5.00"}, {"measurement": "pIC50", "setting": "NCI-H596", "result": 7.08}, {"measurement": "pIC50", "setting": "Daudi", "result": 6.87}, {"measurement": "pIC50", "setting": "SK-HEP-1", "result": "< 5.00"}, {"measurement": "pIC50", "setting": "HL-60/R10", "result": 6.07}, {"measurement": "pIC50", "setting": "KCL-22", "result": 7.62}]}
